In ChEMBL document CHEMBL5463725, “Data for DCP probe BAY-277” (2023):

Columns and labels:
[1] = molecular target: Protein kinase C alpha type (Homo sapiens) (UniProt P17252); test: Inhibition of PKCalpha(h) at 10.0 µM in the Eurofins Kinase panel; settings: Compound concentration 10.0 uM
[2] = molecular target: PI3-kinase p110-delta/p85-alpha (Homo sapiens) (UniProt P27986+O00329); test: Inhibition of PI3 Kinase (p110d/p85a)(h) at 10.0 µM in the Eurofins Kinase panel; assay type: protein-complex assay; settings: Compound concentration 10.0 uM
[3] = molecular target: Serine/threonine-protein kinase Nek1 (Homo sapiens) (UniProt Q96PY6); test: Inhibition of NEK1(h) at 10.0 µM in the Eurofins Kinase panel; settings: Compound concentration 10.0 uM
[4] = molecular target: Wee1-like protein kinase 2 (Homo sapiens) (UniProt P0C1S8); test: Inhibition of Wee1B(h) at 10.0 µM in the Eurofins Kinase panel; settings: Compound concentration 10.0 uM
[5] = molecular target: eIF-2-alpha kinase GCN2 (Homo sapiens) (UniProt Q9P2K8); test: Inhibition of GCN2(h) at 10.0 µM in the Eurofins Kinase panel; settings: Compound concentration 10.0 uM
[6] = molecular target: Methionine aminopeptidase 2 (Homo sapiens, UniProt P50579); test: Degradation in HT1080 cells (CE) Dmax (Capillary electrophoresis (CE)); assay type: functional, cell-based; settings: HT-1080
Sequence of Methionine aminopeptidase 2 (P50579 2-478 limits assumed): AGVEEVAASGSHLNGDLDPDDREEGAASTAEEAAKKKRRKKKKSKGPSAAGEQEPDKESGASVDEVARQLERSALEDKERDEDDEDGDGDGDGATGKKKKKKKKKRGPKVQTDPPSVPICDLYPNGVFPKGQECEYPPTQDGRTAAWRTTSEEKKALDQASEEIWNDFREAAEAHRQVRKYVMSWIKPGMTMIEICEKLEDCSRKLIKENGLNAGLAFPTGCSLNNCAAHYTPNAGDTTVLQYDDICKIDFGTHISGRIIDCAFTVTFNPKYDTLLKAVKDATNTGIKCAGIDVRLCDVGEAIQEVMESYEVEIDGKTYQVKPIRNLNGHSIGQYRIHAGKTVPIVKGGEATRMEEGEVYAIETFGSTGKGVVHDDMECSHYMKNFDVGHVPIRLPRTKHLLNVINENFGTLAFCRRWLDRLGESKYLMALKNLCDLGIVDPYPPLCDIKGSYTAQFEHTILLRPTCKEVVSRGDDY

Sequence of eIF-2-alpha kinase GCN2 (Homo sapiens) (Q9P2K8 whole entry): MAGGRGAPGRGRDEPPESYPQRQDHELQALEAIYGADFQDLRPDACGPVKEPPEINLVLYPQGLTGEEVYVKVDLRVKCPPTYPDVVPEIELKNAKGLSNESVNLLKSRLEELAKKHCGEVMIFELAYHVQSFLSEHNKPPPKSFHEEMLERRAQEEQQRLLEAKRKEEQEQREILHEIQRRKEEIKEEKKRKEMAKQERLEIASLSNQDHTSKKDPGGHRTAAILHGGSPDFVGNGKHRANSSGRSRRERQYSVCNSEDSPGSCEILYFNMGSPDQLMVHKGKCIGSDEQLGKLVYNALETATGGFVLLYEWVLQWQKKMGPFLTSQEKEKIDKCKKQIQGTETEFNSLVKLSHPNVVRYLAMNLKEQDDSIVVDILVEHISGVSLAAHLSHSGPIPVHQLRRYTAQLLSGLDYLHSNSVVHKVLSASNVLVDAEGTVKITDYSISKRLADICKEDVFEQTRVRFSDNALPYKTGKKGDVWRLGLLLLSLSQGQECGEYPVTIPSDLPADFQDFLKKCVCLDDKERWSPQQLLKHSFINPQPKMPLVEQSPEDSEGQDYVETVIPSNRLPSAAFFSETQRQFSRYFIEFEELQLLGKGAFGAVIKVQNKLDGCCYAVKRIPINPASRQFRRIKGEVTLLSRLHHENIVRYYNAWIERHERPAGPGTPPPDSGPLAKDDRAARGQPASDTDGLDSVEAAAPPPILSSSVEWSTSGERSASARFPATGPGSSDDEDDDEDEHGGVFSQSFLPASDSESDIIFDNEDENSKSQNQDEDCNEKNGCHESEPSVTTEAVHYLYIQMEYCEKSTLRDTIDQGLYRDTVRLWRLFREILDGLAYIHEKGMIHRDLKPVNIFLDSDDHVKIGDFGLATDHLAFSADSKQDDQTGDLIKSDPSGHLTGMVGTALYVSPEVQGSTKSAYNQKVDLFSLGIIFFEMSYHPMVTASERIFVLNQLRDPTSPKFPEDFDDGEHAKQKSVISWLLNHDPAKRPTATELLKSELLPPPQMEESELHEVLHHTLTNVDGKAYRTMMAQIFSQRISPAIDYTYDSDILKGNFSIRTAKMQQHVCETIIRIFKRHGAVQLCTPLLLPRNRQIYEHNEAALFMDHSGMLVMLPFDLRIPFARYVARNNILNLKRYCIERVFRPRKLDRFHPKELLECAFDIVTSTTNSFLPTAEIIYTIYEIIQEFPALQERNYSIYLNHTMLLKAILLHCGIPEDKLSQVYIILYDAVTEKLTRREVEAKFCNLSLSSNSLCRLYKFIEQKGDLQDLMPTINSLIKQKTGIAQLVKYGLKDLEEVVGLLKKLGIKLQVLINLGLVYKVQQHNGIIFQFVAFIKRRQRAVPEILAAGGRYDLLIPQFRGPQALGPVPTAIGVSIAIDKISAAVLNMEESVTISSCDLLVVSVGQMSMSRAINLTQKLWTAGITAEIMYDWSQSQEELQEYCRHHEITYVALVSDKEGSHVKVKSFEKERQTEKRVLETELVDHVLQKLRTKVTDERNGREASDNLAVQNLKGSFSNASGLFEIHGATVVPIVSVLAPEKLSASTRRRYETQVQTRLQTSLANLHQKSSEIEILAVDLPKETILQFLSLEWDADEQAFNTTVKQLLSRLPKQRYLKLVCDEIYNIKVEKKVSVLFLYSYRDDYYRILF
Sequence of Wee1-like protein kinase 2 (Homo sapiens) (P0C1S8 whole entry, looked up): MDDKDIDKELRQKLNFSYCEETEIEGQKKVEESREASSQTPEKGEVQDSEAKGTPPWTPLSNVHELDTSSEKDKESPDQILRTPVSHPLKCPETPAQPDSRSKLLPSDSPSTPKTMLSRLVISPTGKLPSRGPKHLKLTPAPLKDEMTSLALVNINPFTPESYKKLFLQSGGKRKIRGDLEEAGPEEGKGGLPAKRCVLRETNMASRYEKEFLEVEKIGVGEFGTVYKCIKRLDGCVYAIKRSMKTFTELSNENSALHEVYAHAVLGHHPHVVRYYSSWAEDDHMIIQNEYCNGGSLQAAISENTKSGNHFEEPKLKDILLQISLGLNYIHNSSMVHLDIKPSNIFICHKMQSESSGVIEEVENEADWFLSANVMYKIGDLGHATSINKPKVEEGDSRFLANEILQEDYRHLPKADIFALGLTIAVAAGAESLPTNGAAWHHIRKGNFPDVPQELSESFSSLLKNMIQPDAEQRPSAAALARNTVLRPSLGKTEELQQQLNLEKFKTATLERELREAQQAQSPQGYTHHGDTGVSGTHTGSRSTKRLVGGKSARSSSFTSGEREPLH
Sequence of Serine/threonine-protein kinase Nek1 (Homo sapiens) (Q96PY6 whole entry): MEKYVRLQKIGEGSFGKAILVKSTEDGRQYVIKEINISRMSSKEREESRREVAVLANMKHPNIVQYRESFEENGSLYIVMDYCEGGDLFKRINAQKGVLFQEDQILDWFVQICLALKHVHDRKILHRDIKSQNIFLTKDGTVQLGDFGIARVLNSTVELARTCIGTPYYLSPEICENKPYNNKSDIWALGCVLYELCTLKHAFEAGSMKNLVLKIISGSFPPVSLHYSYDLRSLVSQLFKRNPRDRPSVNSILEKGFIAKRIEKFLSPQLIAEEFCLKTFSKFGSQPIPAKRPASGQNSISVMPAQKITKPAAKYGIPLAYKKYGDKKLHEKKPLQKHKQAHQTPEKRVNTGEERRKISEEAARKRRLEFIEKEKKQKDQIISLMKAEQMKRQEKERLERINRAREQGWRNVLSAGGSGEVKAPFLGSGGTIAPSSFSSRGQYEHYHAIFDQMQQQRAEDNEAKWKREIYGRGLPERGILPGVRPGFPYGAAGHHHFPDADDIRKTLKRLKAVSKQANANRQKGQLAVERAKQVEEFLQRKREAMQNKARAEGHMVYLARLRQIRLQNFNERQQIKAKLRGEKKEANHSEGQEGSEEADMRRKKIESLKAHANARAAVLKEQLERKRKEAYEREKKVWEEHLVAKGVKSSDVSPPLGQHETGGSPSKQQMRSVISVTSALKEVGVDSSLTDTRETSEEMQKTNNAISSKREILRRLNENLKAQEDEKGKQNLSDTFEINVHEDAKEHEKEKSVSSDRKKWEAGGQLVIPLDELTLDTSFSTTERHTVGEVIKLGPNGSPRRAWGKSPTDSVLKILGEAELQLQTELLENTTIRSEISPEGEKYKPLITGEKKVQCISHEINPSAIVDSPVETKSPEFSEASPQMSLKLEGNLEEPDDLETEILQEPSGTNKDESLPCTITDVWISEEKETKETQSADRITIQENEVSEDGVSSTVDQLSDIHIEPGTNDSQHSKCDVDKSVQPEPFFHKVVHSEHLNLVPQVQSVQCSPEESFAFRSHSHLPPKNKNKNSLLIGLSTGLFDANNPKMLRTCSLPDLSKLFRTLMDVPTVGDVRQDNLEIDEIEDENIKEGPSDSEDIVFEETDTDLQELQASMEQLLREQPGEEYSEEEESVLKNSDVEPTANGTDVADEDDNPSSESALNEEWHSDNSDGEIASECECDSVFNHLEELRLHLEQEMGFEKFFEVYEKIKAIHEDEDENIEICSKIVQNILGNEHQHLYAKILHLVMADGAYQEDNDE

Row | Structure (SMILES) | inhibition [1] | inhibition [2] | inhibition [3] | inhibition [4] | inhibition [5] | Dmax [6]
1 | O=C1NCCCC1N1Cc2cc(C3CCN(C(=O)CCCCCN4CCC(c5ccc(Oc6nn7cnnc7c7c6CCCC7)cc5)CC4)CC3)ccc2C1=O (stereo unspecified) | 12.8% | 11.6% | 11.4% | – | – | –
2 | O=C1CCC(N2Cc3cc(C4CCN(C(=O)CCCCCN5CCC(c6ccc(Oc7nn8cnnc8c8c7CCCC8)cc6)CC5)CC4)ccc3C2=O)C(=O)N1 (stereo unspecified) | – | – | – | 10.3% | 17.2% | 88.5%
